Measurements reported in patent US11318157B2, “6-6 bicyclic aromatic ring substituted nucleoside analogues for use as PRMT5 inhibitors” (Janssen Pharmaceutica NV, priority 2015, dated 2022).
Like-named read-outs stand apart in the source and are kept apart here.

Assays:
PRMT5-MEP50 enzyme [1] = target: T1, PRMT5-MEP50 enzyme (Homo sapiens, UniProt O14744); assay: In vitro assay 1a: high throughput mass spectrometer assay of SAH formation, 10 nM enzyme, 60 min; assay type: biochemical; settings: averaged values, PRMT5-MEP50, 10 nM enzyme, read-out: pIC50 Assay 1a (converted)
T1 construct: One virus expresses full length human PRMT5 with Flag-tag at N-terminus; Flag (N); purchased Charles River (Argenta); host or cells: insect cells (Sf9), baculovirus co-infection
T1 sequence (O14744 whole entry): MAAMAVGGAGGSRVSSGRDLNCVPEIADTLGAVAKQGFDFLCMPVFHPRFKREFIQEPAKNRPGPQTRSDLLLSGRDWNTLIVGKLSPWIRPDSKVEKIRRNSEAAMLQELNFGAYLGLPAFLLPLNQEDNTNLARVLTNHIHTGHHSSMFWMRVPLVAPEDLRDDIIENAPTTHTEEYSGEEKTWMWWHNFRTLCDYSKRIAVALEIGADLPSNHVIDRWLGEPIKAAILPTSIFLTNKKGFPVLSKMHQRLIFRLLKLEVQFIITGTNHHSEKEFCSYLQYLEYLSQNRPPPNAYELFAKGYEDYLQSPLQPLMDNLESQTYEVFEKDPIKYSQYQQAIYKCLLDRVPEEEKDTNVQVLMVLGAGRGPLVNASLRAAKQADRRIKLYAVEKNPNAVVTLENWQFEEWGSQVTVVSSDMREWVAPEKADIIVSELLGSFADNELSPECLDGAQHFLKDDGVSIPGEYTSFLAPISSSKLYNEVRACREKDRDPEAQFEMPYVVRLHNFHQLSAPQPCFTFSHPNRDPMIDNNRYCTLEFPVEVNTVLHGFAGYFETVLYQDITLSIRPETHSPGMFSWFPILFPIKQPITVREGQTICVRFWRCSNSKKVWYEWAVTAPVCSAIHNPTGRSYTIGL
T1 sequence (Q9BQA1 whole entry partner): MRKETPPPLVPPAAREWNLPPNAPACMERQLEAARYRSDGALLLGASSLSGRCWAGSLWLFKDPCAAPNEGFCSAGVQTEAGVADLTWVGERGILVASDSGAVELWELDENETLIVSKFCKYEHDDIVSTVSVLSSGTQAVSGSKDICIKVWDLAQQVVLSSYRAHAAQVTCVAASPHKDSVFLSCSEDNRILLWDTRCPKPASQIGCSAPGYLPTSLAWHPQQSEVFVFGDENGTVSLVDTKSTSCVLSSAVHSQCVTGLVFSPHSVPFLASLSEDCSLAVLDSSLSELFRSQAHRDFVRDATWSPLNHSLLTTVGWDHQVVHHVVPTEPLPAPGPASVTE
Summary of the method: (§1)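 SAH product measured by RapidFire mass spectrometry after formic acid stop; IC50 from 11-point 1:2 dilutions, four-parameter fit. Reactions at 30 °C in 20 mM Tris pH 8.5 with 1 μM SAM, 0.3 μM H2A: assay 1a 10 nM PRMT5-MEP50, 60 min; assay 1b 1.25 nM, 120 min.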

PRMT5-MEP50 enzyme [2] = target: T1, PRMT5-MEP50 enzyme; assay: In vitro assay 1b: high throughput mass spectrometer assay of SAH formation, 1.25 nM enzyme, 120 min; assay type: biochemical; settings: averaged values; PRMT5-MEP50, 1.25 nM enzyme, 120 min; read-out: pIC50 Assay 1b (converted)
Summary of the method: as §1

[3] = test system: nuclear symmetric Arginine dimethylation in A549 cells; assay: PD assay (assay 2): inhibition of nuclear symmetric Arginine dimethylation (SYM10 immunohistochemistry), 48 h; assay type: cell-based; settings: Homo sapiens
Summary of the method: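 Cells seeded at 400/well overnight, then treated 48 h at 37 °C, final DMSO 0.2%. Fixed and stained with SYM10 antibody plus Alexa 488 secondary, Hoechst and CellMask, then imaged on Opera. Normalized to DMSO (high) and 10 μM reference compound (low); averaged pIC50 reported.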

[4] = A549, read-out: pIC50 Assay 2 (converted)
[5] = A549, averaged values, PD assay, A549 cells, symmetric Arginine dimethylation, read-out: pIC50 Assay 2 (converted)

SMILES	IC50 (PRMT5-MEP50 enzyme [1]) [nM]	IC50 (PRMT5-MEP50 enzyme [2]) [nM]	IC50 [3, 5] [nM]	IC50 [3, 4] [nM]
Nc1ncnc2c1ccn2[C@@H]1C[C@H](CCc2ccc3cccnc3c2)[C@@H](O)[C@H]1O [Compound 56]	6.31	15.8	–	7.94
Nc1ccc2ccc(OC[C@H]3O[C@@H](n4ccc5c(N)ncnc54)[C@H](O)[C@@H]3O)cc2n1 [Compound 218]	2.51	5.01	–	5.01
Nc1ncnc2c1ccn2[C@@H]1O[C@H](COc2cc(C(F)(F)F)c3cccnc3c2)[C@@H](O)[C@H]1O [Compound 37]	1000	631	5010	–
N#Cc1cnc2cc(OC[C@H]3O[C@@H](n4ccc5c(N)ncnc54)[C@H](O)[C@@H]3O)ccc2c1N [Compound 29]	501	1260	15800	–
COc1cnc2cc(OC[C@H]3O[C@@H](n4ccc5c(N)ncnc54)[C@H](O)[C@@H]3O)ccc2c1 [Compound 26]	63.1	200	~251	–
Nc1ncnc2c1c(F)cn2[C@@H]1O[C@H](COc2ccc3cccnc3c2)[C@@H](O)[C@H]1O [Compound 44]	63.1	126	251	–
Nc1ncnc2c1ccn2[C@@H]1O[C@H](COc2ccc3cnccc3c2)[C@@H](O)[C@H]1O [Compound 12]	1580	3980	> 10000	–
Nc1ncnc2c1ccn2[C@@H]1O[C@H](COc2ccc3cc(C4CCCC4)cnc3c2)[C@@H](O)[C@H]1O [Compound 109]	126	200	1000	–
COCc1cnc2cc(OC[C@H]3O[C@@H](n4ccc5c(N)ncnc54)[C@H](O)[C@@H]3O)ccc2c1 [Compound 120]	79.4	316	316	–
Nc1ncnc2c1ccn2[C@@H]1O[C@H](COc2ccc3ccc(O)nc3c2)[C@@H](O)[C@H]1O [Compound 18]	79.4	316	~10000	–
Nc1ncnn2c([C@@H]3O[C@H](COc4ccc5cccnc5c4)[C@@H](O)[C@H]3O)ccc12 [Compound 60]	251	398	1260	–
Nc1ncnc2c1ncn2[C@@H]1O[C@H](COc2cc3ncc(Br)cc3cc2Cl)[C@@H](O)[C@H]1O [Compound 219]	3980	> 100000	7940	–
Nc1ncnc2c1ccn2[C@@H]1O[C@H](COc2cc3ncc(Cl)cc3cc2Cl)[C@@H](O)[C@H]1O [Compound 100]	126	200	794	–
Nc1ncnc2c1ccn2[C@@H]1O[C@H](COc2ccc3cccnc3c2I)[C@@H](O)[C@H]1O [Compound 40]	2510	1580	~12000	–
COc1ncnc2c1ccn2[C@@H]1O[C@H](COc2ccc3cc(Br)cnc3c2)[C@@H](O)[C@H]1O [Compound 71]	3160	2000	10000	–
CCc1cnc2cc(OC[C@H]3O[C@@H](n4ccc5c(N)ncnc54)[C@H](O)[C@@H]3O)ccc2c1 [Compound 213]	7.94	15.8	63.1	–
CC(C)Cc1cnc2cc(OC[C@H]3O[C@@H](n4ccc5c(N)ncnc54)[C@H](O)[C@@H]3O)ccc2c1 [Compound 112]	50.1	200	398	–
Cc1cnc2cc(OC[C@H]3O[C@@H](n4ccc5c(N)ncnc54)[C@H](O)[C@@H]3O)ccc2c1 [Compound 217]	5.01	20	39.8	–
Nc1ncnc2c1ccn2[C@@H]1O[C@H](CNc2ccc3cc(Br)cnc3c2)[C@@H](O)[C@H]1O [Compound 51]	10	15.8	~15.5	–
COc1ncnc2c1ccn2[C@@H]1O[C@H](CNc2ccc3cc(Br)cnc3c2)[C@@H](O)[C@H]1O [Compound 87]	501	1000	1580	–
CN(C[C@H]1O[C@@H](n2ccc3c(N)ncnc32)[C@H](O)[C@@H]1O)c1ccc2cc(Br)cnc2c1 [Compound 52]	63.1	158	398	–
CN(C)c1ccc2ccc(OC[C@H]3O[C@@H](n4ccc5c(N)ncnc54)[C@H](O)[C@@H]3O)cc2n1 [Compound 23]	501	316	–	398
Cc1ccnc2cc(OC[C@H]3O[C@@H](n4ccc5c(N)ncnc54)[C@H](O)[C@@H]3O)ccc12 [Compound 32]	39.8	126	501	–

Second part, led by results:

IC50 (PRMT5-MEP50 enzyme [1]) [nM]	IC50 (PRMT5-MEP50 enzyme [2]) [nM]	IC50 [3, 5] [nM]	SMILES	IC50 [3, 4] [nM]
10	50.1	126	CNc1ccc2ccc(OC[C@H]3O[C@@H](n4ccc5cncnc54)[C@H](O)[C@@H]3O)cc2n1 [Compound 174]	–
25.1	79.4	126	Nc1ncnc2c1ccn2[C@@H]1O[C@H](CCc2ccc3cc(Cl)cnc3c2)[C@@H](O)[C@H]1O [Compound 59]	–
3.98	7.94	50.1	CNc1ccc2ccc(OC[C@H]3O[C@@H](n4ccc5c(N)ncnc54)[C@H](O)[C@@H]3O)cc2n1 [Compound 185]	–
12.6	39.8	63.1	Nc1ncnc2c1ccn2[C@@H]1O[C@H](CCc2ccc3cc(Br)cnc3c2)[C@@H](O)[C@H]1O [Compound 111]	–
10	31.6	63.1	Cc1ncnc2c1ccn2[C@@H]1O[C@H](CCc2ccc3ccc(NCc4ccc(Cl)cc4)nc3c2)[C@@H](O)[C@H]1O [Compound 177]	–
0.631	6.31	6.31	Nc1ccc2ccc(CC[C@H]3O[C@@H](n4ccc5c(Cl)ncnc54)[C@H](O)[C@@H]3O)cc2n1 [Compound 133]	–
1580	3160	> 20000	COc1ccc2ccc(OC[C@H]3O[C@@H](n4ccc5c(N)ncnc54)[C@H](O)[C@@H]3O)cc2n1 [Compound 19]	–
10	5.01	~5.5	O[C@@H]1[C@@H](CCc2ccc3ccc(NCC4CC4)nc3c2)C[C@@H](n2ccc3c(Cl)ncnc32)[C@@H]1O [Compound 115]	–
2	1.58	0.501	Nc1ccc2ccc(CC[C@H]3C[C@@H](n4ccc5c(Cl)ncnc54)[C@H](O)[C@@H]3O)cc2n1 [Compound 110]	–
0.794	2.51	2.51	Nc1ncnc2c1ccn2[C@@H]1O[C@H](COc2ccc3ccc(NCc4ccc(Cl)cc4)nc3c2)[C@@H](O)[C@H]1O [Compound 132]	–
15.8	79.4	79.4	Nc1ncnc2c1ccn2[C@@H]1C[C@H](CCc2ccc3cnc(NC4CC4)nc3c2)[C@@H](O)[C@H]1O [Compound 145]	–
2	15.8	39.8	O[C@@H]1[C@H](O)[C@@H](COc2ccc3ccc(NCc4ccc(Cl)cc4)nc3c2)O[C@H]1n1ccc2cncnc21 [Compound 173]	–
100	631	> 10000	Nc1ncnc2c1ccn2[C@@H]1C[C@H](Cc2ccc3ccccc3c2)[C@@H](O)[C@H]1O [Compound 90]	–
631	794	1580	Nc1ncnn2c([C@@H]3O[C@H](CCc4ccc5cccnc5c4)[C@@H](O)[C@H]3O)ccc12 [Compound 62]	–
12.6	20	39.8	Nc1ncnc2c1ccn2[C@@H]1C[C@H](CCc2ccc3cc(Cl)cnc3c2)[C@@H](O)[C@H]1O [Compound 58]	–
7.94	63.1	200	CNc1ccc2ccc(CC[C@H]3O[C@@H](n4ccc5c(Cl)ncnc54)[C@H](O)[C@@H]3O)cc2n1 [Compound 128]	–
> 10000	7940	12600	Nc1ncnc2c1ccn2[C@@H]1C[C@H](OCc2ccc3cnccc3c2)[C@@H](O)[C@H]1O [Compound 85]	–
0.631	7.94	12.6	Nc1ccc2ccc(OC[C@H]3O[C@@H](n4ccc5c(Cl)ncnc54)[C@H](O)[C@@H]3O)cc2n1 [Compound 130]	–
1	15.8	31.6	CC(C)(C)Nc1ccc2ccc(CC[C@H]3C[C@@H](n4ccc5c(N)ncnc54)[C@H](O)[C@@H]3O)cc2n1 [Compound 150]	–
7.94	79.4	126	O[C@@H]1[C@H](O)[C@@H](CCc2ccc3ccc(NCC4CC4)nc3c2)O[C@H]1n1ccc2c(Cl)ncnc21 [Compound 138]	–
3.16	25.1	50.1	Cc1ncnc2c1ccn2[C@@H]1O[C@H](COc2ccc3ccc(NCc4ccc(Cl)cc4)nc3c2)[C@@H](O)[C@H]1O [Compound 205]	–
0.398	10	< 1.17	CNc1ccc2ccc(CC[C@H]3C[C@@H](n4ccc5cncnc54)[C@H](O)[C@@H]3O)cc2n1 [Compound 164]	–
0.501	3.98	< 1.17	O[C@@H]1[C@@H](CCc2ccc3ccc(NCc4ccccc4)nc3c2)C[C@@H](n2ccc3cncnc32)[C@@H]1O [Compound 172]	–
